# Literature values as cited in patent US20020018777A1, “STERILIZATION OF VIRUS INFECTED PLASMA” (priority 1995, published 2002).
# Details: concentrated BPL, animals
compound,measurement,value
"O=C1CCO1 [BPL, β-propiolactone]",carcinogenicity,carcinogenic
